Assay results published in ChEMBL document CHEMBL1128236, “Highly kappa receptor-selective dynorphin A analogues with modifications in position 3 of dynorphin A(1-11)-NH2” (J Med Chem, 1995).

Legend:
Mu-type opioid receptor = Mu-type opioid receptor (Cavia porcellus, UniProt P97266); experiment: Binding affinity towards Opioid receptor mu 1 in guinea pig brain using [3H]DAMGO as radioligand.
Cavia porcellus [1] = species on record: Cavia porcellus; experiment: Ability to inhibit the electrically evoked contraction of the guinea pig ileum(GPI) of the Compound was determined; format: functional
[2] = biological target: Kappa-type opioid receptor (Cavia porcellus, UniProt P41144); experiment: Binding affinity towards Opioid receptor kappa 1 in guinea pig brain using [3H]U-69593 as radioligand.
Kappa-type opioid receptor, sequence (P41144 whole entry): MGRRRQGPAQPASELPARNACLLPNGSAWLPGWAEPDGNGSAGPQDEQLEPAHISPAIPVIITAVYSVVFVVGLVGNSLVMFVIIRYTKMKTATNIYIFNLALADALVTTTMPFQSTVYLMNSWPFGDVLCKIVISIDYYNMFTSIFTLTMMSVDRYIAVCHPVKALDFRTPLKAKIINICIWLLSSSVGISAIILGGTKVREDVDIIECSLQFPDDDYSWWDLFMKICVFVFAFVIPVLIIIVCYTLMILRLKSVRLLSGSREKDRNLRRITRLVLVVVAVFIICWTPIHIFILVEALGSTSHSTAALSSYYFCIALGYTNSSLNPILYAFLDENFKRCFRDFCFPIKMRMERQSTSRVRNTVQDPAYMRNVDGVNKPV

Cavia porcellus [3] = species on record: Cavia porcellus; experiment: Shift in the activity was determined; ns= no significant shift observed with 1000 nM CTAP used as a mu antagonist; format: functional
[4] = Compound was evaluated for its receptor binding affinity at [3H]cyclo[D-pen2,p-cl-Phe4,D-Pen5](delta receptor) to opioid receptor in guinea pig brain

Mu-type opioid receptor, sequence (P97266 whole entry): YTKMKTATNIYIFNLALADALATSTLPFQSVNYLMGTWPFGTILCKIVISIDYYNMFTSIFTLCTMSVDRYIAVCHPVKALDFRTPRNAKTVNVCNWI

Row | Compound | IC50 (Mu-type opioid receptor) | IC50 (Cavia porcellus [1]) | IC50 [2] | IC50 (Cavia porcellus [3]) | IC50 [4]
1 | CC[C@H](C)[C@H](NC(=O)[C@H](CCCN=C(N)N)NC(=O)[C@H](CCCN=C(N)N)NC(=O)[C@H](CC(C)C)NC(=O)[C@H](Cc1ccccc1)NC(=O)[C@@H](C)NC(=O)CNC(=O)[C@@H](N)Cc1ccc(O)cc1)C(=O)N[C@@H](CCCN=C(N)N)C(=O)N1CCC[C@H]1C(=O)N[C@@H](CCCCN)C(N)=O | 260 nM | 8.1 nM | 0.76 nM | Not Active | 
2 | CC[C@H](C)[C@H](NC(=O)[C@H](CCCN=C(N)N)NC(=O)[C@H](CCCN=C(N)N)NC(=O)[C@H](CC(C)C)NC(=O)[C@H](Cc1ccccc1)NC(=O)[C@H](C)NC(=O)CNC(=O)[C@@H](N)Cc1ccc(O)cc1)C(=O)N[C@@H](CCCN=C(N)N)C(=O)N1CCC[C@H]1C(=O)N[C@@H](CCCCN)C(N)=O | 210 nM | 1.7 nM | 1.1 nM | Not Active | 
3 | CC[C@H](C)[C@H](NC(=O)[C@H](CCCNC(=N)N)NC(=O)[C@H](CCCNC(=N)N)NC(=O)[C@H](CC(C)C)NC(=O)[C@H](Cc1ccccc1)NC(=O)CNC(=O)CNC(=O)[C@@H](N)Cc1ccc(O)cc1)C(=O)N[C@@H](CCCNC(=N)N)C(=O)N1CCC[C@H]1C(=O)N[C@@H](CCCCN)C(N)=O |  |  |  | Not Active | 25.5 nM
